How the values were obtained:
[1] = tested on: subject with fluid overload and impaired renal function; assay: Example 5: IV KW-3902 concurrent with diuretic therapy in fluid overload and impaired renal function; type: in vivo, human; conditions: 20-40 mg KW-3902 IV over 3-5 hours, concurrent with other diuretic therapy
Description: A subject with fluid overload, as manifested by peripheral edema, dyspnea, and/or other signs or symptoms presents themself to the physician's office or clinic. The subject has been on a therapy regimen that includes oral diuretics and, in addition, to needing a higher dose of diuretics to manage his/her fluid balance, the subject is now showing impaired renal function. […] The subject is administered a dose of about 20 mg to about 40 mg KW-3902 intravenously over about 3 to about 5 hours, preferably over the course of about 4 hours, concurrent with other diuretic therapy. The subject's fluid intake and output, urine volume, serum and urine creatinine levels, electrolytes and cardiac function are monitored.

[2] = tested on: hospitalized subject treated with maximum amounts of IV diuretic and still fluid overloaded; assay: Example 4: IV KW-3902 with continued furosemide in a hospitalized subject refractory to IV diuretic; type: in vivo, human; conditions: 20-40 mg KW-3902 IV over 3-5 hours
Description: A hospitalized subject who has been treated with maximum amounts of IV diuretic and is still symptomatic, fluid overloaded, or whose urine output is less than fluid intake is evaluated for further treatment. A dose of a KW-3902 between about 20 mg and about 40 mg, and preferably about 30 mg injectable form is infused through the IV line over the course of about 3 hours to about 5 hours, and preferably over the course of about 4 hours. […] The subject's fluid intake and output, urine volume, serum and urine creatinine levels, electrolytes and cardiac function are monitored.

[3] = tested on: Subjects presenting with congestive heart failure who are refractory to high dose diuretic therapy; assay: Example 3: IV KW-3902 in subjects refractory to standard IV diuretic therapy; type: in vivo, human; conditions: 20-40 mg KW-3902 IV over 3-5 hours
Description: Changes in urine output are measured hourly. The subjects' creatinine clearance rate is measured every 3 hours. […] A dose of between about 20 mg and about 40 mg, preferably about 30 mg of KW-3902 in injectable form is infused through the IV line over the course of about 3 to about 5 hours, and preferably over the course of 4 hours. The subject receives continued treatment with furosemide. The subject's fluid intake and output, urine volume, serum and urine creatinine levels, electrolytes and cardiac function are monitored.

[4] = tested on: Subjects presenting with New York Heart Association Class II-IV CHF and estimated creatinine clearance between 20 mL/min and 80 mL/min
Description: The subjects are taking an oral loop diuretic. The subjects can also present with a one of the following: history of seizure, stroke within two years, brain tumor, brain surgery within two years, encephalitis within two years, history of penetrating head trauma, closed head injury with loss of consciousness over 30 minutes within two years, history of alcohol withdrawal seizure, advanced Alzheimer's disease, or advanced multiple sclerosis (“at risk” subjects). The subjects' medical history, physical examination, classification of CHF, vital signs, body weight, CHF signs and symptom scores, Holter monitor recording, chest X-ray, CBC chemistries, creatinine clearance, fluid intake, and urine output are determined on pre-treatment days −2 to −1, days 1 to 3 of the Treatment Period, day 4/early Termination and a follow up contact at day 30. […] On day 1, the composition comprising KW-3902 (or placebo) is administered as a monotherapy. 6 hours after administration of KW-3902, IV loop diuretic is given to all treatment groups as needed. […] Final laboratory data are collected on day 4 or early termination. Follow-up phone contact is conducted on day 30.

[5] = tested on: subject with fluid overload; assay: Example 7: IV KW-3902 concurrent with diuretic therapy in fluid overload; type: in vivo, human; conditions: 20-40 mg KW-3902 IV over 3-5 hours
Description: A subject with fluid overload, as manifested by peripheral edema, dyspnea, and/or other signs or symptoms presents to the physician's office or clinic. The subject has been on a therapy regimen that includes oral diuretics and needs a higher dose of diuretics to manage his/her fluid balance. To delay or prevent the onset of renal impairment and/or to delay the need to use higher dosages of standard diuretics, the subject is administered a dose of about 20 mg to about 40 mg, and preferably a dose of about 30 mg, KW-3902 IV, administered over the course of about 3 to about 5 hours, and preferably over the course of about 4 hours. The subject also receives concurrent with their diuretic therapy. The subject's fluid intake and output, urine volume, serum and urine creatinine levels, electrolytes and cardiac function are monitored.

For `CCCn1c(=O)c2[nH]c(C34CC5CC(CC3C5)C4)nc2n(CCC)c1=O` [KW-3902, 8-(3-noradamantyl)-1,3-dipropylxanthine], the creatinine clearance [1] was “improved diuresis and creatinine clearance”, the diuresis [1] was “improved diuresis” and the “seizures throughout the course of therapy” value [1] was “do no experience seizures”. For the same compound, the diuresis [2] was “improved diuresis”, the seizures [2] was “do not experience seizures” and the “seizures during the course of treatment” value ([3]; continued furosemide) was “do not experience seizures”. The creatinine clearance ([3]; compared to placebo) was “improvement in creatinine clearance”, the “hourly urine volume over the ensuing 9 hours” value ([3]; compared to placebo) was “increased hourly urine volume” and the “kidney function as measured by serum creatinine levels compared to the baseline levels” value ([4]; 20-40 mg (preferably about 30 mg) KW-3902 IV over about 4 hours, days 1-3, effect greater than placebo) was “improvement in kidney function”. For the same compound, the “seizures throughout the treatment period” value ([4]; at risk subjects) was “do not experience seizures”, the “diuresis, as measured by urine output” value ([4]; combination of KW-3902 and non adenosine-modifying diuretics such as furosemide) was “synergistic beneficial effect on diuresis” and the diuresis [5] was “improved diuresis”. For the same compound, the renal function [5] was “renal function is maintained” and the “seizure throughout the course of treatment” value [5] was “do not experience a seizure”.

Source: US20080242684A1, “METHODS OF ADMINISTRATION OF ADENOSINE A1 RECEPTOR ANTAGONISTS” (priority 2007, published 2008)
